Experimental data taken from US12673936B2, “Isoindolinone compounds, and uses thereof” (HANGZHOU GLUBIO PHARMACEUTICAL CO., LTD., priority 2021, dated 2026).

Tests used:
HiBiT tagged CK1α = HiBiT tagged CK1α (Homo sapiens, UniProt P48729+Q96SW2); assay: CK1α degradation assay (HiBiT assay); assay type: cell-based; details: 20 hours; for Dmax: HT-1080, HT-1080 cells; for Dmax / HiBiT CK1α: Dmax: maximum CK1α degradation; for DC50 / HiBiT CK1α: Dmax: HT-1080 cells; for DC50: concentration at 50% CK1α degradation
Summary of the method: (§1)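 HT-1080 cells stably expressing wild-type CRBN, GSPT1A(1-138)/G575N and HiBiT-tagged CK1α or GSPT1, ~10,000/well, treated with compound from 3.162×10^-4 μM to 10 μM (3.16-fold steps). HiBiT luminescence normalized to DMSO as percent of control.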

HiBiT tagged GSPT1 = HiBiT tagged GSPT1 (Homo sapiens, UniProt P15170+Q96SW2); assay: GSPT1 degradation assay (HiBiT assay); assay type: cell-based; details: 20 hours, maximum GSPT1 degradation; for HiBiT GSPT1: Dmax: HT-1080 cells; for Dmax: HT-1080, HT-1080 cells
Summary of the method: as §1

Sequence of HiBiT tagged CK1α (P48729 whole entry): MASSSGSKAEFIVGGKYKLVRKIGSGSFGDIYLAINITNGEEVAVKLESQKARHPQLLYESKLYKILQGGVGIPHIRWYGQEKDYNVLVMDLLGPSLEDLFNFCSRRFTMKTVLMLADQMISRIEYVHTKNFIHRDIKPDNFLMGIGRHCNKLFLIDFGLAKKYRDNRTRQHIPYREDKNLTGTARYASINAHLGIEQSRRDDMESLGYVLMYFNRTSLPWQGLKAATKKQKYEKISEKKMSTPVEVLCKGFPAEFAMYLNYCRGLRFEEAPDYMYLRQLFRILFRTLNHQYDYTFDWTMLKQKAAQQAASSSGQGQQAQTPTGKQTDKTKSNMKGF
Sequence of HiBiT tagged CK1α (Q96SW2 whole entry): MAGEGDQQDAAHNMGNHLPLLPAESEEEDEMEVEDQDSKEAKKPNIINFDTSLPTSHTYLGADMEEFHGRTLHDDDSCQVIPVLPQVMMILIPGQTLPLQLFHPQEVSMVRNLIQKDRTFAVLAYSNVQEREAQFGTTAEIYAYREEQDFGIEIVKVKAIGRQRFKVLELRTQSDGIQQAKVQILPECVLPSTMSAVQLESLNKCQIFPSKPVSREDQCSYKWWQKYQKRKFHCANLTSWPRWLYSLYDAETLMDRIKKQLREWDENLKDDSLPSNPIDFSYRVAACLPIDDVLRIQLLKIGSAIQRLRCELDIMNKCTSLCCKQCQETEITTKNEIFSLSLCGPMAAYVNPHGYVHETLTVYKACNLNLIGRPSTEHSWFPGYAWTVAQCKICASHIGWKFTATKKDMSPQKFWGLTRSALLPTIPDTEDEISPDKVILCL
Sequence of HiBiT tagged CK1α (Q16531 whole entry partner): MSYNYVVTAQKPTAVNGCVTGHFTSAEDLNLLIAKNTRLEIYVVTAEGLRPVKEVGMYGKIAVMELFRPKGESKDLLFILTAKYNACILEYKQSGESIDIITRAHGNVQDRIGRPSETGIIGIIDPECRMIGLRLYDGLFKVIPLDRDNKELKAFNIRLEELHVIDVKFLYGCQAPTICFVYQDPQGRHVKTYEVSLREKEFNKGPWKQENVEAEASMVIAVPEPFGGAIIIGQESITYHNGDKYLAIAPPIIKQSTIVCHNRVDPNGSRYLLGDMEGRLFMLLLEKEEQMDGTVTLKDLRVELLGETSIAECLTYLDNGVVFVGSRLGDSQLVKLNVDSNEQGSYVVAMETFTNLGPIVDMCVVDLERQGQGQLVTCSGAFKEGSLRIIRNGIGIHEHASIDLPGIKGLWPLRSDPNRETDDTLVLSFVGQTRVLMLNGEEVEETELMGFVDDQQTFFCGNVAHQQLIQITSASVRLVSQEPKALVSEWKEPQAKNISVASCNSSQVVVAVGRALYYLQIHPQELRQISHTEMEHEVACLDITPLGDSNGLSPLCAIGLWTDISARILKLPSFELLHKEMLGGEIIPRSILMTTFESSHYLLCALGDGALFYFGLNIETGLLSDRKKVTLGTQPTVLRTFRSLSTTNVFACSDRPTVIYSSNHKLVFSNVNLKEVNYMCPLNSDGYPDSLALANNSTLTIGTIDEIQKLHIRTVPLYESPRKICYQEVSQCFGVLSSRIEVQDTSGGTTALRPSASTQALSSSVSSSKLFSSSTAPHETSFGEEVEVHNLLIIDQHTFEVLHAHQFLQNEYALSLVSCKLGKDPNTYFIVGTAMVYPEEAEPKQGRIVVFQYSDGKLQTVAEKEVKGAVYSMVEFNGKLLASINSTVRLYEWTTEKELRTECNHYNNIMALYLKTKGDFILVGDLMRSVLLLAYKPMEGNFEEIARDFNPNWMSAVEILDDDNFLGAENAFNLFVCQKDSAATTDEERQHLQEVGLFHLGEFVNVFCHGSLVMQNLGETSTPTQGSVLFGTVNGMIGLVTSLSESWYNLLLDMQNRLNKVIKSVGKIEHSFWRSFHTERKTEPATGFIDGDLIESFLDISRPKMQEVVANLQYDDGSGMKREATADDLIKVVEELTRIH
Sequence of HiBiT tagged GSPT1 (P15170 whole entry): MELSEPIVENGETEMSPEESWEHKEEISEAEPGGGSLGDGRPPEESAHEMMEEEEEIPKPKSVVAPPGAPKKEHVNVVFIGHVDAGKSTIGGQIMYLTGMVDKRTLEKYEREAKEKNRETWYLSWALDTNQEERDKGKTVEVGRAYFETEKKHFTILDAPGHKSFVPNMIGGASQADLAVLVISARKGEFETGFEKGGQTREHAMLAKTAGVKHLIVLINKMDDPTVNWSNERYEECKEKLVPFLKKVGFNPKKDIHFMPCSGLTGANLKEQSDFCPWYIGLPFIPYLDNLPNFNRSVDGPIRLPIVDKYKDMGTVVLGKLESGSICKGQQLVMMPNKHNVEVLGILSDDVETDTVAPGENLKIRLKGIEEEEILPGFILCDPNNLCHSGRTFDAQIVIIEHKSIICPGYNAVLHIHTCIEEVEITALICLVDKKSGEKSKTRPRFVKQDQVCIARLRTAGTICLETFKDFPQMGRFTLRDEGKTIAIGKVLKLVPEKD
Sequence of HiBiT tagged GSPT1 (Q96SW2 whole entry): as the sequence (Q96SW2 whole entry) above
Sequence of HiBiT tagged GSPT1 (Q16531 whole entry partner): as the sequence (Q16531 whole entry partner) above

SMILES | Dmax (HiBiT tagged CK1α) | DC50 (HiBiT tagged CK1α) | HiBiT GSPT1: Dmax (HiBiT tagged GSPT1) | HiBiT CK1α: Dmax (HiBiT tagged CK1α) | Dmax (HiBiT tagged GSPT1)
O=C1CC[C@H](N2Cc3cc(C(=O)N[C@H](c4ccc(Cl)cc4F)C4CCC4)ccc3C2=O)C(=O)N1 (racemic) [Compound 55, N-((*S)-(4-chloro-2-fluorophenyl)(cyclobutyl)methyl)-2-((*S)-2,6-dioxopiperidin-3-yl)-1-oxoisoindoline-5-carboxamide] | 57.8% | 948 nM | 48% | – | –
O=C1CC[C@H](N2Cc3cc(C(=O)N[C@H](c4ccc(F)c(F)c4)C4CCC4)ccc3C2=O)C(=O)N1 (racemic) [Compound 48, N-((*S)-cyclobutyl(3,4-difluorophenyl)methyl)-2-((S)-2,6-dioxopiperidin-3-yl)-1-oxoisoindoline-5-carboxamide] | – | 130 nM | 26.2% | 66.2% | –
O=C1CCC(N2Cc3cc(C(=O)N[C@@H](c4cccc(C(F)(F)F)c4)C4CC4)ccc3C2=O)C(=O)N1 (stereo in doubt) [Compound 33, N-((*R)-cyclopropyl(3-(trifluoromethyl)phenyl)methyl)-2-(2,6-dioxopiperidin-3-yl)-1-oxoisoindoline-5-carboxamide] | 56.3% | 1300 nM | – | – | 66.3%
O=C1CCC(N2Cc3cc(C(=O)N[C@H](c4ccccc4Cl)C4CC4)ccc3C2=O)C(=O)N1 (stereo in doubt) [Compound 12, N-((*S)-(2-chlorophenyl)(cyclopropyl)methyl)-2-(2,6-dioxopiperidin-3-yl)-1-oxoisoindoline-5-carboxamide] | 64.7% | 140 nM | – | – | 36.8%
O=C1CCC(N2Cc3cc(C(=O)NC(c4cccc(F)c4Cl)C4CC4)ccc3C2=O)C(=O)N1 (centres unmarked) [Compound 43, N-((2-chloro-3-fluorophenyl)(cyclopropyl)methyl)-2-(2,6-dioxopiperidin-3-yl)-1-oxoisoindoline-5-carboxamide] | 69.8% | 49.6 nM | – | – | 58.2%
O=C1CCC(N2Cc3cc(C(=O)N[C@@H](c4c(F)cccc4F)C4CCC4)ccc3C2=O)C(=O)N1 (stereo in doubt) [Compound 66, N-((*R)-cyclobutyl(2,6-difluorophenyl)methyl)-2-(2,6-dioxopiperidin-3-yl)-1-oxoisoindoline-5-carboxamide] | 67.9% | 118 nM | – | – | 55.3%
O=C1CCC(N2Cc3cc(C(=O)N[C@H](c4ccc(F)cc4Cl)C4CC4)ccc3C2=O)C(=O)N1 (stereo in doubt) [Compound 13, N-((*S)-(2-chloro-4-fluorophenyl)(cyclopropyl)-yl)methyl)-2-(2,6-dioxopiperidin-3-yl)-1-oxoisoindoline-5-carboxamide] | 65.9% | 293 nM | – | – | 37%
O=C1CCC(N2Cc3cc(C(=O)N[C@@H](c4ccc(Cl)cc4)C4CC4)ccc3C2=O)C(=O)N1 (stereo in doubt) [Compound 2, N—((*R)-(4-chlorophenyl)(cyclopropyl)methyl)-2-(2,6-dioxopiperidin-3-yl)-1-oxoisoindoline-5-carboxamide] | – | 180 nM | 33.6% | 67% | –
O=C1CCC(N2Cc3cc(C(=O)N[C@H](c4ccc(Cl)cc4)C4CC4)ccc3C2=O)C(=O)N1 (stereo in doubt) [Compound 3, N—((*S)-(4-chlorophenyl)(cyclopropyl)methyl)-2-(2,6-dioxopiperidin-3-yl)-1-oxoisoindoline-5-carboxamide] | 50.6% | 5190 nM | – | – | 73.1%
O=C1CCC(N2Cc3cc(C(=O)N[C@H](c4ncccc4Cl)C4CCC4)ccc3C2=O)C(=O)N1 (stereo in doubt) [Compound 18, N-((*S)-(3-chloropyridin-2-yl)(cyclobutyl)methyl)-2-(2,6-dioxopiperidin-3-yl)-1-oxoisoindoline-5-carboxamide] | 66% | 137 nM | – | – | 58.5%
O=C1CCC(N2Cc3cc(C(=O)N[C@H](c4ccc(F)cc4)C4COC4)ccc3C2=O)C(=O)N1 (stereo in doubt) [Compound 58, 2-(2,6-dioxo-3-piperidyl)-N-[(*S)-(4-fluorophenyl)-(oxetan-3-yl)methyl]-1-oxo-isoindoline-5-carboxamide] | 49.7% | – | – | – | 16.5%
O=C1CCC(N2Cc3cc(C(=O)N[C@@H](c4c(F)cccc4Cl)C4CCC4)ccc3C2=O)C(=O)N1 (stereo in doubt) [Compound 70, N-((*R)-(2-chloro-6-fluorophenyl)(cyclobutyl)methyl)-2-(2,6-dioxopiperidin-3-yl)-1-oxoisoindoline-5-carboxamide] | – | 50.3 nM | 58% | 73.9% | –
O=C1CCC(N2Cc3cc(C(=O)NC(c4ccc(F)c(F)c4)C4CCC4)ccc3C2=O)C(=O)N1 (centres unmarked) [Compound 40, N-(cyclobutyl(3,4-difluorophenyl)methyl)-2-(2,6-dioxopiperidin-3-yl)-1-oxoisoindoline-5-carboxamide] | 57.5% | 416 nM | – | – | 30.6%
O=C1CCC(N2Cc3cc(C(=O)N[C@H](c4c(F)cccc4F)C4CC4)ccc3C2=O)C(=O)N1 (stereo in doubt) [Compound 17, N-((*S)-cyclopropyl(2,6-difluorophenyl)methyl)-2-(2,6-dioxopiperidin-3-yl)-1-oxoisoindoline-5-carboxamide] | 68.1% | 123 nM | – | – | 49.3%
O=C1CCC(N2Cc3cc(C(=O)N[C@H](c4c(F)cccc4F)C4CCC4)ccc3C2=O)C(=O)N1 (stereo in doubt) [Compound 67, N-((*S)-cyclobutyl(2,6-difluorophenyl)methyl)-2-(2,6-dioxopiperidin-3-yl)-1-oxoisoindoline-5-carboxamide] | 76.4% | 40 nM | – | – | 31.7%
